What was measured:
Type in all cases: in vivo
[1] = test system: ragweed (common ragweed, Ambrosia elatior); assay: Test A postemergence, ragweed; conditions: 0 to 100 scale, 0 no effect, 100 complete control
In short: (§1)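 Plants grown in a loam soil and sand blend were treated either preemergence by directed soil spray or postemergence when 2 to 10 cm tall (one- to two-leaf stage). Formulation: non-phytotoxic solvent mixture with surfactant. Greenhouse hold ~10 d, then visual injury assessment on a 0–100 scale.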

corn (Zea mays) = assay: Test A postemergence, corn; conditions: 0 to 100 scale, 0 no effect, 100 complete control
In short: as §1

[2] = test system: barnyardgrass (Echinochloa crus-galli); assay: Test A postemergence, barnyardgrass; conditions: 0 to 100 scale, 0 no effect, 100 complete control
In short: as §1

rice (Oryza sativa) = assay: Test B flooded paddy test, rice; conditions: Flood, 250 g ai/ha, applied to paddy water, 2-leaf stage, visual evaluation after 13 to 15 d
In short: (§2)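 Growth to two leaves preceded treatment. Flooding to 3 cm above soil surface, then water-applied compound; depth kept constant. Scored visually relative to controls after 13–15 d greenhouse; 100 means full control.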

[3] = test system: barnyardgrass (Echinochloa crus-galli); assay: Test B flooded paddy test, barnyardgrass; conditions: Flood, 250 g ai/ha, applied to paddy water, 2-leaf stage, visual evaluation after 13 to 15 d
In short: as §2

[4] = test system: ragweed (common ragweed, Ambrosia elatior); assay: Test A preemergence, ragweed; conditions: 0 to 100 scale, 0 is no effect, 100 is complete control
In short: as §1

[5] = test system: sedge, umbrella (small-flower umbrella sedge, Cyperus difformis); assay: Test B flooded paddy test, umbrella sedge; conditions: Flood, 250 g ai/ha, applied to paddy water, 2-leaf stage, visual evaluation after 13 to 15 d
In short: as §2

[6] = test system: pigweed (Amaranthus retroflexus); assay: Test A preemergence, pigweed; conditions: 0 to 100 scale, 0 is no effect, 100 is complete control
In short: as §1

kochia (Kochia scoparia) [7] = assay: Test A preemergence, kochia; conditions: 0 to 100 scale, 0 is no effect, 100 is complete control
In short: as §1

[8] = test system: ryegrass, Italian (Lolium multiflorum); assay: Test A preemergence, Italian ryegrass; conditions: 0 to 100 scale, 0 is no effect, 100 is complete control
In short: as §1

[9] = test system: foxtail, giant (Setaria faberii); assay: Test A preemergence, giant foxtail; conditions: 0 to 100 scale, 0 is no effect, 100 is complete control
In short: as §1

[10] = test system: galium (catchweed bedstraw, Galium aparine); assay: Test A postemergence, galium; conditions: 0 to 100 scale, 0 no effect, 100 complete control
In short: as §1

[11] = test system: wheat (Triticum aestivum); assay: Test A postemergence, wheat; conditions: 0 to 100 scale, 0 no effect, 100 complete control
In short: as §1

[12] = test system: pigweed (Amaranthus retroflexus); assay: Test A postemergence, pigweed; conditions: 0 to 100 scale, 0 no effect, 100 complete control
In short: as §1

[13] = test system: barnyardgrass (Echinochloa crus-galli); assay: Test A preemergence, barnyardgrass; conditions: 0 to 100 scale, 0 is no effect, 100 is complete control
In short: as §1

[14] = test system: ducksalad (Heteranthera limosa); assay: Test B flooded paddy test, ducksalad; conditions: Flood, 250 g ai/ha, applied to paddy water, 2-leaf stage, visual evaluation after 13 to 15 d
In short: as §2

kochia (Kochia scoparia) [15] = assay: Test A postemergence, kochia; conditions: 0 to 100 scale, 0 no effect, 100 complete control
In short: as §1

[16] = test system: foxtail, giant (Setaria faberii); assay: Test A postemergence, giant foxtail; conditions: 0 to 100 scale, 0 no effect, 100 complete control
In short: as §1

[17] = test system: ryegrass, Italian (Lolium multiflorum); assay: Test A postemergence, Italian ryegrass; conditions: 0 to 100 scale, 0 no effect, 100 complete control
In short: as §1

[18] = test system: blackgrass (Alopecurus myosuroides); assay: Test A postemergence, blackgrass; conditions: 0 to 100 scale, 0 no effect, 100 complete control
In short: as §1

Structure (SMILES)	Plant response rating, Ragweed ([1]; 125 g ai/ha)	Plant response rating, Ragweed ([1]; 500 g ai/ha)	Plant response rating, Corn (corn (Zea mays); 125 g ai/ha)	Plant response rating, Corn (corn (Zea mays); 500 g ai/ha)	Plant response rating, Barnyardgrass ([2]; 125 g ai/ha)	Plant response rating, Barnyardgrass ([2]; 500 g ai/ha)	Plant response rating, Rice (0 to 100 scale, 0 is no effect, 100 is complete control) (rice (Oryza sativa))	Plant response rating, Barnyardgrass (0 to 100 scale, 0 is no effect, 100 is complete control) [3]	Ragweed plant response rating ([4]; 125 g ai/ha)	Ragweed plant response rating ([4]; 500 g ai/ha)	Plant response rating, Sedge, Umbrella (0 to 100 scale, 0 is no effect, 100 is complete control) [5]	Pigweed plant response rating ([6]; 125 g ai/ha)	Pigweed plant response rating ([6]; 500 g ai/ha)	Kochia plant response rating (kochia (Kochia scoparia) [7]; 125 g ai/ha)	Kochia plant response rating (kochia (Kochia scoparia) [7]; 500 g ai/ha)	Ryegrass, Italian plant response rating ([8]; 125 g ai/ha)	Ryegrass, Italian plant response rating ([8]; 500 g ai/ha)	Foxtail, Giant plant response rating ([9]; 125 g ai/ha)	Foxtail, Giant plant response rating ([9]; 500 g ai/ha)	Plant response rating, Galium ([10]; 125 g ai/ha)	also measured
Nc1nc(NC(c2cc3ccccc3o2)C2CC2)ncc1C(F)(F)F (stereo not drawn) [Compound 88]	30	90	20	30	10	90	0	80	80	100	95	100	100	70	100	50	100	90	100	90	Plant response rating, Galium ([10]; 500 g ai/ha): 90; Plant response rating, Wheat ([11]; 125 g ai/ha): 0; Plant response rating, Wheat ([11]; 500 g ai/ha): 0; Plant response rating, Pigweed ([12]; 125 g ai/ha): 100; Plant response rating, Pigweed ([12]; 500 g ai/ha): 100; Barnyardgrass plant response rating ([13]; 125 g ai/ha): 70; Barnyardgrass plant response rating ([13]; 500 g ai/ha): 90; Plant response rating, Ducksalad (0 to 100 scale, 0 is no effect, 100 is complete control) [14]: 65; Plant response rating, Kochia (kochia (Kochia scoparia) [15]; 125 g ai/ha): 90; Plant response rating, Kochia (kochia (Kochia scoparia) [15]; 500 g ai/ha): 90; Plant response rating, Foxtail, Giant ([16]; 125 g ai/ha): 30; Plant response rating, Foxtail, Giant ([16]; 500 g ai/ha): 90; Plant response rating, Ryegrass, Italian ([17]; 125 g ai/ha): 50; Plant response rating, Ryegrass, Italian ([17]; 500 g ai/ha): 60; Plant response rating, Blackgrass ([18]; 125 g ai/ha): 50; Plant response rating, Blackgrass ([18]; 500 g ai/ha): 50
Nc1nc(NC(c2cc3ccccc3o2)C2CC2)ncc1C(F)(F)F (stereo not drawn) [Compound 89]	0	0	0	0	0	0	0	30	0	20	95	0	0	0	0	0	0	0	0	0	Plant response rating, Galium ([10]; 500 g ai/ha): 0; Plant response rating, Wheat ([11]; 125 g ai/ha): 0; Plant response rating, Wheat ([11]; 500 g ai/ha): 0; Plant response rating, Pigweed ([12]; 125 g ai/ha): 0; Plant response rating, Pigweed ([12]; 500 g ai/ha): 0; Barnyardgrass plant response rating ([13]; 125 g ai/ha): 0; Barnyardgrass plant response rating ([13]; 500 g ai/ha): 0; Plant response rating, Ducksalad (0 to 100 scale, 0 is no effect, 100 is complete control) [14]: 30; Plant response rating, Kochia (kochia (Kochia scoparia) [15]; 125 g ai/ha): 0; Plant response rating, Kochia (kochia (Kochia scoparia) [15]; 500 g ai/ha): 0; Plant response rating, Foxtail, Giant ([16]; 125 g ai/ha): 0; Plant response rating, Foxtail, Giant ([16]; 500 g ai/ha): 0; Plant response rating, Ryegrass, Italian ([17]; 125 g ai/ha): 0; Plant response rating, Ryegrass, Italian ([17]; 500 g ai/ha): 0; Plant response rating, Blackgrass ([18]; 125 g ai/ha): 0; Plant response rating, Blackgrass ([18]; 500 g ai/ha): 0
C[C@@H](Nc1ncc(C(F)(F)F)c(N)n1)c1cc2ccccc2n1C [Compound 98]	30	60	0	0	0	0	0	0	20	80	0	0	100	0	0	20	40	0	40	50	Plant response rating, Galium ([10]; 500 g ai/ha): 70; Plant response rating, Wheat ([11]; 125 g ai/ha): 0; Plant response rating, Wheat ([11]; 500 g ai/ha): 0; Plant response rating, Pigweed ([12]; 125 g ai/ha): 60; Plant response rating, Pigweed ([12]; 500 g ai/ha): 90; Barnyardgrass plant response rating ([13]; 125 g ai/ha): 20; Barnyardgrass plant response rating ([13]; 500 g ai/ha): 50; Plant response rating, Ducksalad (0 to 100 scale, 0 is no effect, 100 is complete control) [14]: 0; Plant response rating, Kochia (kochia (Kochia scoparia) [15]; 125 g ai/ha): 20; Plant response rating, Kochia (kochia (Kochia scoparia) [15]; 500 g ai/ha): 40; Plant response rating, Foxtail, Giant ([16]; 125 g ai/ha): 0; Plant response rating, Foxtail, Giant ([16]; 500 g ai/ha): 0; Plant response rating, Ryegrass, Italian ([17]; 125 g ai/ha): 0; Plant response rating, Ryegrass, Italian ([17]; 500 g ai/ha): 0; Plant response rating, Blackgrass ([18]; 125 g ai/ha): 0; Plant response rating, Blackgrass ([18]; 500 g ai/ha): 0
